The source of these data is US9060959B2, “Synergistic compositions and method for potentiating anti-oxidative activity” (The State of Israel, Ministry of Agriculture & Rural …, priority 2003, dated 2015).

The conditions of test [1]: in vivo; cited from earlier work.
For test [2], the system named is β-carotene oxidation catalyzed by metmyoglobin. Nature of the test: β-carotene co-oxidation in simulated gastric fluid. It is filed as biochemical. How it is done:
Here B carotene co-oxidation was determined in order to identify free radical damage during lipid peroxidation in the same model system of acid gastric fluid (FIG. 2).
However, the addition of catechin to the same system containing metmyoglobin inhibited β-carotene oxidation by 100% (FIG. 2).

Test [3] concerns peroxides / lipid peroxidation catalyzed by metmyoglobin. Put plainly: Simulated gastric system comprising polyphenol and metmyoglobin catalyst, with antacid. Type of test: biochemical. The settings on record: low acidic conditions obtained by addition of antacid, metmyoglobin catalyst. An excerpt: An unexpected phenomenon established by the inventors of the present invention is that that in the stomach, generation or breakdown of peroxides by endogenous catalysts or catalysts obtained from food products, or components thereof, and food supplements can be selected by polyphenols and antacids. In other words, the appropriate combination of polyphenol and antacids can invert the catalyzed reaction from pro-oxidation to antioxidation consequently attenuating lipid peroxidation in the stomach.
The terms “a gastric-simulating system” or “simulated gastric system” are interchangeably used herein to describe an experimental setup comprising components which simulate, in-vitro, the environment of the GI tracts or components thereto. In a particular example, a gastric simulating system may comprise the following components: HCl 0.1N and pepsin (Kanner et al. ibid).
Hydroperoxides measurement in linoleic acid emulsions: Catechin was dissolved in 10% ethanol in water and the reaction tubes were incubated in triplicate in a shaking bath at 37° C. for 180 min. Samples of 25 or 50 μl were taken from the reaction tubes during the incubation and added to 475 or 950 μl, respectively, of FOX2 reagent. Before each experiment, old stock solution of linoleic acid was mixed with fresh solution in order to maintain an accurately consistent initial level of hydroperoxides.

For `[Mg+2].[OH-].[OH-]` [Magnesium hydroxide], in test [1], the “raises pH of the stomach to” value is 9 pH.
For catechin, the “inhibition of β-carotene oxidation” value in test [2] (acid gastric fluid model system containing metmyoglobin) was 100%. Besides, in test [2] (low acidic conditions obtained by addition of antacid, metmyoglobin catalyst), the β-carotene co-oxidation entry is recorded as “completely prevented”. Also, in test [3], the lipid peroxidation entry was “completely prevented” and the peroxide generation result was “zero”.
As for `O=C([O-])[O-].[Ca+2]` [Calcium carbonate], the “raises pH of the stomach to” value in test [1] is recorded as at most 7.0 pH.
